Experiments:
[1] = biological target: T1, SIRT6 (Homo sapiens, UniProt Q8N6T7); test: Small molecule SIRT6 activator screen (H3K9ac peptide deacetylation, HPLC); type: biochemical; conditions: compound 100 μM; SIRT6 1 μM; H3K9ac peptide 20 μM; 0.5 mM NAD+
Method: Mastermix containing SIRT6, buffer, and H3K9ac peptide were distributed to wells using Microflex peristaltic dispenser (Beckman). Plates were spun and preheated to 37° C. before addition of NAD^+ using peristaltic dispenser. After 60 minutes reactions were quenched with 2% TFA final using peristaltic dispenser then sealed and spun again before in-house HPLC separation and quantification of substrate and product peptides. Reaction conditions were 1 μM SIRT6, 0.5 mM NAD^+, […] (4-16), 20 mM potassium phosphate pH 7.5, 10% DMSO, and either 10 or 100 μM compound determined by 10-fold dilution of stock library concentration.
All sirtuin deacylation assays were carried out at 37° C. in 20 mM potassium phosphate pH 7.5 with 0.5 mM NAD^+, 10% DMSO, and 20 μM H3K9ac or H3K9myr peptides, unless otherwise noted in legend, and quenched by the addition of 2% TFA final. Steady-state reactions were constrained to less than 20% substrate turnover to prevent product inhibition. A variety of times were required to monitor SIRT6 deacetylation (2-60 minutes) under this restraint given the ability to strongly activate catalysis. In these cases, specific activities were determined and either reported as is or as fold-activation of specific activity. […] Deacetylation reactions were analyzed using a gradient of 33-100% B (30% acetonitrile with 0.05% TFA) in 8 min at 1.6 mL min^−1. Demyristoylation reactions were analyzed using a gradient of 3 to 100% B (acetonitrile with 0.05% TFA) in 10 min at 1.6 mL min^−1. The product and substrate peaks were quantified and ratio of these allowed for quantification of product formation.

[2] = Micelle formation with fluorescent membrane probe diphenylhexatriene (DPH); type: physicochemical
[3] = biological target: SIRT6 R65A (Homo sapiens, UniProt Q8N6T7, R65A); test: Steady-state deacetylation rate of SIRT6 R65A with or without CL5D; type: biochemical; conditions: CL5D 50 μM
SIRT6 R65A, sequence (Q8N6T7 whole entry R65A): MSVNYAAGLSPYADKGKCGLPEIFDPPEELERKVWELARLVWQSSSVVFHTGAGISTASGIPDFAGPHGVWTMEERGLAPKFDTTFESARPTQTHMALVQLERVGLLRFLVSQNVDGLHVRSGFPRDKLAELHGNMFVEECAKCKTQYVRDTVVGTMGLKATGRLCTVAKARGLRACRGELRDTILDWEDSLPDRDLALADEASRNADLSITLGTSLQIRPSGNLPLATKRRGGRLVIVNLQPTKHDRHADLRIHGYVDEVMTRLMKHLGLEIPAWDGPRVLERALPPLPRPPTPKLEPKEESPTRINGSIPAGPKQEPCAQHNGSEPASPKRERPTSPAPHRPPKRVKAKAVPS
Method: All sirtuin deacylation assays were carried out at 37° C. in 20 mM potassium phosphate pH 7.5 with 0.5 mM NAD^+, 10% DMSO, and 20 μM H3K9ac or H3K9myr peptides, unless otherwise noted in legend, and quenched by the addition of 2% TFA final. Steady-state reactions were constrained to less than 20% substrate turnover to prevent product inhibition. A variety of times were required to monitor SIRT6 deacetylation (2-60 minutes) under this restraint given the ability to strongly activate catalysis. In these cases, specific activities were determined and either reported as is or as fold-activation of specific activity. Deacylation reactions were analyzed by reversed phase high-performance liquid chromatography on a Kinetex C18 column (100 Å, 100×4.6 mm, 2.6 μm, Phenomenex) by monitoring the formation of the deacylated product at 214 nm. Deacetylation reactions were analyzed using a gradient of 33-100% B (30% acetonitrile with 0.05% TFA) in 8 min at 1.6 mL min^−1. Demyristoylation reactions were analyzed using a gradient of 3 to 100% B (acetonitrile with 0.05% TFA) in 10 min at 1.6 mL min^−1. The product and substrate peaks were quantified and ratio of these allowed for quantification of product formation. Three independent experiments were performed for each condition with averages being plotted and error bars representing the standard deviation of these replicates. […]

[4] = biological target: T1, SIRT6; test: Histone deacetylation assay with acid extracted histones, H3K9ac immunoblot; type: biochemical; conditions: 50 μM compound; histones 75 μg/mL from SAHA-treated HEK293T cells; SIRT6 1 μM
Method: HEK293T cells were cultured in Dulbecco's Modified Eagle Medium supplemented with 10% fetal bovine serum. Cells were treated with 10 μM SAHA for 24 hours prior to harvest. Cells were trypsinized and pelleted prior to washing twice with ice-cold PBS. Cells were then resuspended in 800 μL ice-cold 10 mM HEPES pH 7.4, 10 mM KCl, 0.05% NP-40, and histone deacetylase and protease inhibitors (1 mM sodium butyrate, 4 μM trichostatin A, 100 μM phenylmethylsulfonyl fluoride, 10 μg/mL leupeptin, and 10 μg/mL aprotinin) for 20 minutes. After a 1,000×g 10 minute spin at 4° C. the pelleted nuclei were resuspended in 0.2 M HCl and incubated on ice for 20 minutes. Following 10 minute spin at 21,000×g at 4° C. the acid extracted supernatant was neutralized with 1 M Tris-HCl pH 8 prior to BCA protein concentration measurement. Histone deacetylation assays were ran with 75 μg/mL extracted histones, 1 μM SIRT6, 50 μM CL5, CL5D or 5% DMSO control, 0.5 mM NAD^+, in 20 mM potassium phosphate pH 7.5. Reactions ran at 37° C. prior to quench with SDS loading dye and 5 minute boil. 540 ng of nuclei acid extract following sirtuin reaction were loaded for 15% SDS-PAGE followed by transfer to nitrocellulose. Membrane was blocked with 1% milk before blotted with anti-H3K9ac (Active Motiff 39917) 1:3000 and imaged. […] Bands were quantified using Image Studio Lite (LiCor). […]

T1 sequence (Q8N6T7 whole entry): as the sequence (Q8N6T7 whole entry R65A) above, with A65R counted along it

Structure (SMILES): O=C(O)c1ccc2c(c1)C(=O)N(c1ccc(NC(=O)c3ccc(Cl)cc3Cl)c(Cl)c1)C2=O [CL-4, 2-(3-chloro-4-(2,4-dichlorobenzamido)phenyl)-1,3-dioxoisoindoline-5-carboxylic acid]
- F.A. (fold-activation of SIRT6 relative to DMSO control) [1]: 18 fold
- micelle formation (in words) [2]: not observed to form micelles

Structure (SMILES): O=C(O)c1ccc2c(c1)C(=O)N(c1ccc(N(C(=O)c3c(Cl)cc(Cl)cc3Cl)C(=O)c3c(Cl)cc(Cl)cc3Cl)c(Cl)c1)C2=O [CL-5D, 2-(3-chloro-4-(2,4,6-trichloro-N-(2,4,6-trichlorobenzoyl)benzamido)phenyl)-1,3-dioxoisoindoline-5-carboxylic acid]
- activation of SIRT6 R65A (in words) [3]: cannot be activated
- RateCL5D ([3]; SIRT6 R65A 1 μM, H3K9ac 40 μM, 25 minutes): 0.014 ± 0.004 µM/min
- SIRT6 deacetylation at H3K9 of whole histone substrate (in words) [4]: stimulated

Structure (SMILES): CCCCC/C=C\C/C=C\CCCCCCCC(=O)NCC(=O)O [N-Linoleoylglycine, linoleoyl-glycine, reference compound]
- F.A. (fold-activation of SIRT6 relative to DMSO control) [1]: 29 fold
- concentration at which micelle formation was observed [2]: > 300 µM

From patent US12390447B2, “Sirtuin 6 protein deacylase (SIRT6) activators” (Wisconsin Alumni Research Foundation, priority 2019, dated 2025)
